Columns and labels:
TXNIP mRNA [1] = assay: TXNIP mRNA levels in murine MIN6 pancreatic beta cells (RT-PCR); type: cell-based, mouse; settings: 25 mM glucose, 72 hours
Description: FIGS. 4A-4B. […] MIN6 cells were cultured under 25 mM glucose with C30 and C38 at the indicated concentrations for 72 hours. Total RNA was prepared. RT-PCR was performed and data shown are the mean±SEM from triplicates. Statistical analysis was performed for each column vs. HG DMSO using one-way ANOVA: *p<0.0001. […] MIN6 cells were cultured under 25 mM glucose and treated with C30 and C38 at the indicated concentrations for 72 hours. Total RNA was prepared. RT-PCR was performed and data shown are the mean±SEM from triplicates. Statistical analysis was performed for each column vs. HG DMSO using one-way ANOVA: *p<0.0001.
To ascertain the relevance to pancreatic beta cells, we tested the effects of the lead compounds on key target gene mRNA levels in murine MIN6 pancreatic beta cells.
RNA extraction and quantitative RT-PCR. RNA was extracted using the Direct-zol™ RNA MiniPrep Plus (Zymo Research). Reverse transcription of RNA samples into cDNA was performed using the GeneAmp RNA PCR Kit (Applied Biosystems), dNTP (from Roche Applied Science), Rnase inhibitor, MULV Reverse Transcriptase and Random hexamers reagent (all from Invitrogen). Diluted cDNA was quantified using real-time PCR performed with Power SYBR Green qPCR MasterMix (Applied Biosystem) and 7500 real-time PCR system (Applied Biosystems). The HPRT1 gene was used as an internal control.

TXNIP mRNA [2] = assay: TXNIP expression in murine kidneys after oral dosing (RT-PCR); type: in vivo, C57BL/6 mice; settings: 90 mg/kg oral gavage daily for five days, 96 hr after last dose
Description: FIG. 17. Compounds C30 and C38 reduce TXNIP expression in murine kidneys. Twelve male C57BL/6 mice were divided into three groups (vehicle, C30 and C38, 4/group). They received 90 mg/kg dose of compounds daily for five consecutive days. Compounds were given through oral gavage and mice were humanely euthanized 96 hr after the last drug administration. Kidneys were collected for total RNA preparation. RT-PCR was performed in triplicate and data shown are the mean±SEM. Statistical analysis was performed using one-way ANOVA: *p<0.05.
The effects of compounds C30 and C38 at single high dose of 90 mg/kg. Twelve male mice were divided into three groups: 1) Control group (4 mice), 2) compound C30 (4 mice) and 3) compound C38 (4 mice). By oral gavage, animals were given 90 mg/kg of agent daily for 5 consecutive days (vehicle: 30% Solutol in saline). Mice were weighed every day during the treatment period. They were humanely euthanized 96 hours after the last dose. Tissues including the pancreas, liver and kidneys were collected (snap frozen in liquid nitrogen) for RNA extraction. […] Those given compound C30 lost ˜5% of body weight (FIG. 15).
Expression of TXNIP in vivo in treated mice.

human islets [3] = assay: BCL2/BAX ratio (apoptosis marker) in human islets under high glucose plus cytokines; type: cell-based; settings: 25 mM glucose + TNFα, IL1β, IFNγ, 40 hours
Description: FIGS. 18A-18B. C30 and C38 compounds protect cells from apoptosis in human islets. 100 IEQ human islets (Hu 1178) were cultured in PIM(R)© containing NG (5.8 mM glucose) or HG (25 mM glucose), and TNFα (20 ng/ml), IL1β (20 ng/ml), IFNγ (200 ng/ml) for 40 hours with or without lead compounds. Total RNA was prepared and RT PCR performed. FIG. 18A: BCL2/BAX ratios are the mean±SEM from triplicates. Statistical analysis was performed for each column vs. HG, 3 cytokines using one-way ANOVA: *p<0.002. FIG. 18B: TXNIP relative mRNA levels. Data shown are the mean±SEM from triplicates. Statistical analysis was performed for each column vs. HG, 3 cytokines using one-way ANOVA: **p<0.0001.
In T1D, β-cell death involves necrosis and apoptosis. BCL2 limits BAX/BAK oligomerization, to impede the release of several apoptogenic molecules from mitochondria. Also, BCL2 binds to and inactivates BAX and other pro-apoptotic proteins, thereby inhibiting apoptosis. BAX and BAK disrupt the integrity of the mitochondrial outer membrane to promote apoptotic cell death. As such, the BCL2/BAX ratio is used as a marker of cell susceptibility to apoptosis. High levels of this ratio can serve as an indicator of the resistance of human cells to apoptosis. […]

human islets [4] = assay: Human islet viability by FDA/PI staining under high glucose plus cytokines; type: cell-based; settings: HG/cytokine cocktail, 24 hr, 5 uM compound
Description: FIG. 19. Lead compounds enhance viability in human islets and protect them from apoptosis. 200 IEQ human islets (Hu 1183) were cultured in PIM(R)® medium containing NG (5.8 mM glucose) or HG (25 mM glucose), and mixture of TNFα (20 ng/ml), IL1β (20 ng/ml), and IFNγ (200 ng/ml) for 24 hours with or without C30 or C38. Islets were collected, washed with PBS once and stained with FDA and PI for 5 minutes and visualized with a Keyence All-in-One Fluorescence Microscope (BZ-X800E).
Lead compounds increase viability of human islets. […] Fluorescein diacetate/propidium iodide (FDA/PI) staining was employed to assess human islet viability.

Structure (SMILES) | TXNIP mRNA levels (TXNIP mRNA [1]) | RNA expression level of TXNIP in kidneys (TXNIP mRNA [2]) | BCL2/BAX ratio (human islets [3]) | human islet viability (FDA/PI staining) (human islets [4])
COc1cc(N2CC[C@@H](c3ccc4ccccc4c3)[C@H](O)C2)nc(N)n1 [Compound C30] | decreased TXNIP mRNA levels | reduced | significantly increased BCL2/BAX ratios | protected human islets from death
c1ccc(CCNc2ncnc3c2oc2ccccc23)cc1 [Compound C38] | decreased TXNIP mRNA levels | reduced | significantly increased BCL2/BAX ratios | protected human islets from death

From patent US11964984B2, “TXNIP-TRX complex inhibitors and methods of using the same” (CITY OF HOPE, priority 2020, dated 2024)
